# Measurements published in paper PMC12845078 (Pharmaceuticals, 2025).
# Read-outs that look alike come from different tables or passages of the source.
# What was measured:
# [1] = Plasma protein binding (rapid equilibrium dialysis), rat; format: in vitro ADME
# Experimental: (§3) After incubation for 20 min, a portion of the whole blood was centrifuged at 2500× g for 10 min at 4 °C to separate plasma; another portion of the whole blood was subjected to three cycles of freeze–thawing and ultrasonicated for 10 min to disrupt cells. Equal volumes of plasma and whole blood samples were added to the whole blood and plasma specimens, respectively, followed by protein precipitation with acetonitrile containing an internal standard (IS). […] The RED inserts were placed in the matching incubation plate: 200 µL of drug-containing matrix were added to the sample chamber, and 400 µL of PBS buffer (pH: 7.4) were added to the buffer chamber. After incubation in a constant-temperature shaking incubator for 6 h (37 °C), samples from the sample chamber and buffer chamber were diluted 1:1 with PBS or matrix, respectively, and proteins were precipitated with acetonitrile containing IS.
# [2] = Plasma protein binding (rapid equilibrium dialysis), human; format: in vitro ADME; settings: pH 7.4, human
# Experimental: as §3
# [3] = Liver microsome protein binding, rat; format: in vitro ADME; settings: liver microsomes, pH 7.4
# [4] = test system: CYP1A2-mediated metabolism of MT; test: Static DDI model prediction of CBD's impact on MT exposure, rat; settings: CBD dose 5 mg
# Text: (§1) (AUC when co-administered with the inhibitor) to AUC[contr] (AUC without the inhibitor).
# [5] = Brain tissue protein binding, rat; format: in vitro ADME; settings: pH 7.4
# Experimental: as §3
# [6] = Plasma protein binding (rapid equilibrium dialysis), dog; settings: beagle
# Experimental: as §3
# [7] = test system: CYP1A2-mediated metabolism of MT; test: Static DDI model prediction of CBD's impact on MT exposure, beagle; parameters: species or system beagle dog; settings: CBD dose 30 mg
# Text: as §1
# [8] = Pharmacokinetics of MT, 6-HMT and CBD in SD rats (i.v. and oral); settings: rat; for half-life / AUC(0-t) / AUC(0-inf) / Cmax / MRT last / Tmax: Sprague-Dawley; for half-life: in vivo, t1/2, rats; for AUC(0-t) / AUC(0-inf) / Cmax / MRT last / Tmax: plasma; for MRT last: MRT(0–t)
# Experimental: The drugs were dissolved in the same manner as described previously, with an administration volume of 5 mL/kg for all groups. Blood samples were collected at the time points of pre-administration and 0.033 (only for the intravenous administration group), 0.083, 0.25, 0.5, 0.75, 1, 1.5, 2, 4, 6, 8, and 12 h post-administration.
# (§2) The column temperature was set at 40 °C.
# [9] = Liver microsome protein binding, dog; format: in vitro ADME; settings: beagle, liver microsomes, pH 7.4
# Experimental: as §3
# [10] = Plasma protein binding (rapid equilibrium dialysis), mouse; format: in vitro ADME; settings: pH 7.4
# Experimental: as §3
# [11] = target: T1, PEPT1 (Homo sapiens, UniProt P46059); test: Uptake and uptake inhibition in MDCK/hPEPT1 cell model; format: cell-based; settings: MDCK
# T1 construct: host or cells: MDCK
# T1 sequence (P46059 1-708): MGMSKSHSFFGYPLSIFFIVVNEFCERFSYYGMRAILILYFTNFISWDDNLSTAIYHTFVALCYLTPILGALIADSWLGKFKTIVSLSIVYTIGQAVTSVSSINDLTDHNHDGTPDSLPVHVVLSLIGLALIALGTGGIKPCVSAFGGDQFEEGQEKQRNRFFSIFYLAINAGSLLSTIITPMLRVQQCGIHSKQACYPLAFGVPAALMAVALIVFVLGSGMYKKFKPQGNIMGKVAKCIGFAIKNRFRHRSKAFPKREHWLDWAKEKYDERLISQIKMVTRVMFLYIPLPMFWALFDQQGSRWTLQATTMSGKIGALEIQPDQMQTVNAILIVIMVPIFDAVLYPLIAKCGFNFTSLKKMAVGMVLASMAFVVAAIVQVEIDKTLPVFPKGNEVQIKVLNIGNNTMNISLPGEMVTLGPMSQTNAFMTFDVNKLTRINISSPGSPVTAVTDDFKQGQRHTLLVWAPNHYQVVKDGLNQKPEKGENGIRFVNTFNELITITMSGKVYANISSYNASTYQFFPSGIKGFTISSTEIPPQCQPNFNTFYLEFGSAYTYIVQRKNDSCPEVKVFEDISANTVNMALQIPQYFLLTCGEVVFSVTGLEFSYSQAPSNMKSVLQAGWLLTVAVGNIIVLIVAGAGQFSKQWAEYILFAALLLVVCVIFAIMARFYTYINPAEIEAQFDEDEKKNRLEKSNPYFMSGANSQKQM
# Experimental: MDCK-PEPT1 cells were seeded into 24-well plates at a density of approximately 5 × 10^5 cells per well. When the cell confluency reached 60–70%, the culture medium was aspirated, and the cells were rinsed twice with HBSS pre-warmed to 37 °C. […] After incubation at 37 °C for 10 min, the buffer was aspirated, and ice-cold HBSS was immediately added to terminate the reaction, followed by rinsing three times. After drying the residual liquid, 200 μL of pure water were added to each well, and the cells were lysed by repeated freezing–thawing in liquid nitrogen three times. The cell lysates were collected, and the protein content was determined by the BCA method.
# Cell uptake assessment: The concentration of the analyte in cells was corrected using the protein concentration of the cell lysate in each well.(4) Conclysate=Concdrug/ConcProtein
# The uptake rate (U, pmol/mg/min) of the compound was calculated following Formula (5).(5) U=Clysate/P×t where Clysate is the amount of drug in the cell lysate (ng); P is cellular protein content (mg); t is incubation time (min).
# The uptake ratio of the compound was calculated following Formula (6)(6) UR=U/ UMOCK where UMOCK is the uptake rate in MOCK-MDCK cells (pmol/mg/min).
# The inhibition ratio was calculated following Formula (7)(7) IR=(1−Uwith inhibitor−Umock with inhibitor/Uwithout inhibitor−Umock without inhibitor)×100%
# [12] = Pharmacokinetics of MT, 6-HMT and CBD in beagles after oral administration; settings: beagle
# Experimental: Twelve male healthy adult beagles (weighing 10 ± 2 kg) were randomly divided into two groups. […] The drugs were dissolved in a physiological saline solution containing 5% castor oil, with an administration volume of 2 mL/kg. Blood samples were collected at the time points of pre-administration and 0.083, 0.25, 0.5, 0.75, 1, 1.5, 2, 4, 6, 8, and 12 h post-administration.
# as §2
# [13] = Liver microsome protein binding, human; format: in vitro ADME; settings: liver microsomes, pH 7.4
# Experimental: as §3
# [14] = Pharmacokinetics of MT and CBD in rats after pre-administration of ABT; settings: p.o. MT + CBD (5 + 20) mg/kg
# Experimental: Twelve SD rats were randomly divided into two groups. Both groups were first given an intragastric administration of 1-aminobenzotriazole (ABT) at a dose of 200 mg/kg. […] The administration volume for all groups was 5 mL/kg. […] Approximately 50 μL of venous blood were collected into heparin sodium anticoagulant tubes and placed on ice. The sample processing and storage methods were the same as described previously.
# Subsequently, the resultant mixture was vortexed for 1 minute and centrifuged at 4 °C for 10 min at 18,800× g. […] The lowest limit of quantification (LLOQ) was established at 2 ng/mL.
# Kromasil 100-5-C8 (2.1 × 50 mm) was selected for the separation of samples. The mobile phase consisted of solvent A (water with 0.1% formic acid and 5 mM ammonium acetate) and solvent B (methanol with 0.1% formic acid). […] The column temperature was set at 40 °C. The two eluents were 0.1% formic acid and 5 mM ammonium acetate in water (A) and 0.1% formic acid in methanol (B). […] The main mass spectrometry detection parameters were: dry gas 10 L/min, heated gas 10 L/min, collision gas 270 kPa, ion source temperature 300 °C, desolvation temperature 250 °C, and heating module temperature 400 °C.
# Pharmacokinetic parameters: GraphPad Prism 10.1 software was utilized to draw the curves. Noncompartmental analysis was selected to calculate the major PK parameters, including clearance (CL), volume (V), half-life (t1/2), peak concentration (Cmax), and area under the curve (AUC), using WinNonlin 8.1.
# [15] = po, 20 mg/kg, rats, p.o., MT + CBD (20 + 20) mg/kg
# [16] = po, 20 mg/kg, rats, p.o., Vehicle + CBD 20 mg/kg
# [17] = male, po, 20 mg/kg, rats, p.o., MT + CBD (5 + 20) mg/kg
compound,measurement,setting,value
"C=C(C)[C@@H]1CCC(C)=C[C@H]1c1c(O)cc(CCCCC)cc1O [CBD, Cannabidiol]","fu, p (free fraction in plasma)",[1],0.25%
same,fraction unbound at 6 h,"[1]; plasma, pH 7.4",0.0025
same,fraction unbound at 6 h,[2]; read-out: Plasma Protein Binding (converted),0.001
same,fraction unbound at 6 h,"[2]; read-out: fu, p (free fraction in plasma)",0.0001
same,fraction unbound at 6 h,[3],0.0055
same,[I]h (estimated free concentration in liver),[4],0.74 nM
same,fraction unbound at 6 h,[5],0.0006
same,"fu, p (free fraction in plasma)",[6],0.33%
same,fraction unbound at 6 h,"[6]; dog, plasma, pH 7.4",0.0033
same,[I]h (estimated free concentration in liver),[7],1.37 nM
same,half-life,"[8]; po, 20 mg/kg, p.o., MT + CBD (20 + 20) mg/kg",160 min
same,half-life,"[8]; po, 20 mg/kg, p.o., Vehicle + CBD 20 mg/kg",213 min
same,AUC(0-t),[8]; [15],1390 ng·h/mL
same,AUC(0-t),[8]; [16],1570 ng·h/mL
same,AUC(0-inf),[8]; [15],1410 ng·h/mL
same,AUC(0-inf),[8]; [16],1590 ng·h/mL
same,Cmax,[8]; [15],519 ng/mL
same,Cmax,[8]; [16],704 ng/mL
same,MRT last,[8]; [15],2.71 h
same,MRT last,[8]; [16],3.11 h
same,Tmax,[8]; [15],1.21 h
same,Tmax,[8]; [16],0.92 h
same,half-life,"[8]; male, po, 20 mg/kg, p.o., MT + CBD (5 + 20) mg/kg",248 min
same,Cmax,"[8]; male, oral, parameter of CBD for static DDI model",1620 nM
same,AUC(0-t),[8]; [17],1590 ng·h/mL
same,AUC(0-inf),[8]; [17],1610 ng·h/mL
same,Cmax,[8]; [17],510 ng/mL
same,MRT last,[8]; [17],3.85 h
same,Tmax,[8]; [17],1.5 h
same,Ka (oral absorption rate),[8]; calculated as 0.693/(tmax/5),2.31
same,fraction unbound at 6 h,[9],0.0018
same,fraction unbound at 6 h,[10],0.0029
same,inhibition at 500 µM,"[11]; 500 μM CBD, 100 μM MT, 4 °C, read-out: uptake inhibition rate of MT",2.7%
same,inhibition at 500 µM,"[11]; 500 μM CBD, 100 μM MT, 37 °C, read-out: uptake inhibition rate of MT",79.6%
same,inhibition at 500 µM,"[11]; pH 6.3, 500 μM CBD, 100 μM Gly, pH 6.3, 37 °C, read-out: inhibition rate on the uptake of Gly via PEPT1",46.7%
same,inhibition at 500 µM,"[11]; pH 6.3, 500 μM CBD, 100 μM UBEN, pH 6.3, 37 °C, read-out: inhibition rate on the uptake of UBEN via PEPT1",55.8%
same,Ka (oral absorption rate),[12]; calculated as 0.693/(tmax/5),3.77
same,Cmax,"[12]; male, dog, plasma, oral",1310 nM
same,fraction unbound at 6 h,[13],0.0073
same,AUC(0–t) of CBD in ABT-model rats relative to control group,[14],approximately 1.68 fold
